Results on five molecules are retold here after patent US10718028B2, “Fluorescent probes for abasic site detection” (CASE WESTERN RESERVE UIVERSITY, priority 2015, dated 2020).

Series [1] is described as follows: Absorption and emission spectra of AP site binding probes in ethanol. The class given is physicochemical. As for the experimental part: NMR spectra were recorded on a Varian Mercury 300 MHz, a Varian Inova 400, and a Varian Inova 600 MHz spectrometer at room temperature, except where otherwise noted. Chemical shifts for 1H NMR were reported as 6, parts per million, and referenced to CHCl3 at 7.26 ppm or TMS at 0 ppm. Chemical shifts for ^13C NMR were reported as 6 and referenced to the center line of the CDCl3 triplet at 77.0 ppm or CH2Cl2 pentet at 54.0 ppm. Low resolution mass spectra were recorded on a ThermoScientific LCQ Advantage or a Finnigan LCQ Deca mass spectrometer. Fluorescence data were collected on a Varian Cary Eclipse fluorescence spectrophotometer in a quartz cuvette with a 1 cm pathlength or on a Tecan Infinite M200 scanner. Absorbance data were collected on a Varian Cary 50 Bio UV-Visible Spectrophotometer in a quartz cuvette with a 1 cm path length.
To characterize the fluorescent properties, the absorption and emission spectra were collected for all final compounds.

The test system of series [2] is AP DNA. The series is described as follows: SSB activity assay, dose-response of AP site binding probes. Type of series: biochemical. The settings on record: 5 pmol AP DNA, FIG. 1. The method, then:
FIG. 1 illustrates SSB activity assay is used to compare the dose-response of AP site binding probes in 5 pmol of AP DNA. Mean and standard deviation of triplicate samples are shown for each concentration.
The single strand break (SSB) assay was proposed as a quick, facile tool to screen AP site binding probes. Therefore, the assay was performed on novel AP site binding probes described above and the commercially available AP site binding probe, F422. […] The reduced response of F422 and DansylMX may be due in part to the compounds being fairly electron rich near the aminooxy binding moiety. This could lead to a Coulombic repulsion with the DNA phosphate backbone.
SSB activity assays were performed on a 40-mer duplex DNA synthesized by IDT with the sequence:
SSB Activity Assay Control Reactions

Take `CCCN1/C(=C/C=C(/C=C/C2=[N+](CCC)c3ccccc3C2(C)C)c2ccc(C(=O)NCCCON)cn2)C(C)(C)c2ccccc21` [Cy5MX, 2-((1E,3Z)-3-(5-((3-(aminooxy)propyl)carbamoyl)pyridin-2-yl)-5-((E)-3,3-dimethyl-1-propylindolin-2-ylidene)penta-1,3-dien-1-yl)-3,3-dimethyl-1-propyl-3H-indol-1-ium 2,2,2-trifluoroacetate]: in series [1], the Stokes shift was determined as 20 nm, the λabs max worked out at 640 nm and the λem max came to 660 nm. Also, the “dose-response and overall efficacy in SSB assay” value in series [2] is “acceptable dose-response and overall efficacy”.
Turning to `CN(C)c1cccc2c(S(=O)(=O)NOCCCON)cccc12` [DansylMX, N-(3-(aminooxy)propoxy)-5-(dimethylamino)naphthalene-1-sulfonamide], in series [1], the Stokes shift amounted to 200 nm, the λabs max came to 340 nm and the λem max worked out at 540 nm. Moreover, in series [2], the “dose-response and overall efficacy in SSB assay” value is “unacceptable dose-response”; the “overall reduction in SSB activity” value is reported as “ca. 60%”.
Regarding `Cc1cc(=O)oc2cc(OCCCON)ccc12` [MCMX, 7-(3-(aminooxy)propoxy)-4-methyl-2H-chromen-2-one], in series [1], the Stokes shift is 50 nm, the λabs max turned out to be 325 nm and the λem max was 375 nm. Moreover, the “dose-response and overall efficacy in SSB assay” value in series [2] is “superior to the other probes assayed in dose-response and overall efficacy”.
Regarding `NOCCCOc1ccc2cc(-c3ccc([N+](=O)[O-])cc3)c(=O)oc2c1` [NpCMX, 7-(3-(aminooxy)propoxy)-3-(4-nitrophenyl)-2H-chromen-2-one], in series [1], the Stokes shift is 185 nm, the λabs max is 365 nm and the λem max was 550 nm. Besides, in series [2], the “dose-response and overall efficacy in SSB assay” value was “superior to the other probes assayed in dose-response and overall efficacy”.
Regarding `NNC(=S)Nc1ccc(-c2c3ccc(=O)cc-3oc3cc(O)ccc23)c(C(=O)O)c1` [Probe F422, reference compound], in series [2], the “dose-response and overall efficacy in SSB assay” value is listed as “unacceptable dose-response”; the “overall reduction in SSB activity” value is about 90%.
